Here are results for 1 compound from patent publication US9187397B2 (STC.UNM, priority 2004, dated 2015).

Series [1] in a line: Reactivity toward L-cysteine as nucleophile (absorbance 425 nm). Type of series: physicochemical. The following applies: 1 mM L-cysteine in sodium phosphate buffer, pH 7; read-out: t1/2 of absorbance quenching by L-cysteine. As to the method:
Natural log values were determined based on 1st order kinetics.
Weber et al., (2005) Bioorg Med Chem 13, 3811-3820. These groups potentially serve as Michael acceptors which are chemically reactive and can form undesirable covalent modifications with biomolecules. Michael acceptors are generally thought to be poor drug compounds because of their high reactivity toward nucleophilies.
These groups potentially serve as Michael acceptors which are a chemically reactive species that can form undesirable covalent modifications with binding targets. […] Michael acceptors are generally thought to be poor drug compounds because of their high reactivity toward nucleophiles. […] In addition, at or below neutral pH, primary amino groups are predominantly in their protonated form and therefore weak nucleophiles that are unlikely to react to any significant extent with curcumin.

The target in a further series is Aβ oligomers and fibrils (Homo sapiens (Human), UniProt P05067). The settings on record: cited from earlier work.
Chain of Aβ oligomers and fibrils (P05067 672-711): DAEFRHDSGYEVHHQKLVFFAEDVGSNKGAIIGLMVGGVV

As for `COc1cc(/C=C/C(=O)/C=C(O)/C=C/c2ccc(O)c(OC)c2)ccc1O` [analog 3a, 1,7-Bis(4-hydroxy-3-methoxyphenyl)-1,6-heptadiene-3,5-dione], the half-life at 20 μM in series [1] was 7.2 min. On Aβ oligomers and fibrils (in vitro), the “IC50 for disaggregation of preformed fibrils” value was 1000 nM and the “IC50 for fibril inhibition” value is 800 nM. Moreover, the “IC50 for Aβ oligomerization reported by Yang, et al.” value at Aβ oligomers and fibrils (non-biotinylated Aβ(1-40)) is about 1000 nM.
